Experimental data as given in patent US20030068340A1, “Parenteral formulations of 1-(5-tert-butyl-2-p-tolyl-2H-pyrazol-3-yl)-3-[4-(2-morpholin-4-yl-ethoxy)-naphthalen-1-yl]-urea” (Boehringer Ingelheim Pharmaceuticals, Inc., priority 2001, published 2003).
Converted amounts (≈) assume the structure as drawn.

Experiments:
[1] = Solubility and/or stability of BIRB 796 in pharmaceutically-acceptable solvents; type: physicochemical; settings: 30% PEG 400, 40% PG/10% ethanol or aqueous buffer solutions at any pH
[2] = Effect of cyclodextrins on the aqueous solubility of BIRB 796; type: physicochemical; settings: for solubility: aqueous
Method: Complexing cyclodextrin agents were evaluated as a means to improve the solubility of BIRB 796. The solubility of BIRB 796 was evaluated as a function of the concentrations of underivatized parent β-cyclodextrin (BCD), the alkylated derivatives […]. The results of Table 1 with respect to the solubility of BIRB 796 as a function of HPBCD concentration are illustrated in FIG. 1, and the results of Table 1 with respect to the solubitlity of BIRB 796 as a function of SBECD concentration are shown in FIG. 2.

[3] = test system: proinflammatory cytokines, such as tumor necrosis factor (TNF) and interleukin-1 (IL-1); settings: disclosed in PCT/US99/29165; cited from earlier work
[4] = Stability of BIRB 796 in PEG 400 as function of temperature, storage atmosphere and light exposure; type: physicochemical; settings: for kobs / t90: PEG 400, C0 = 30 mg/mL; for half-life at 30 mg/mL: solution in PEG 400, PEG 400, C0 = 30 mg/mL
Method: The stability of BIRB 796 in PEG 400 was evaluated. An initial BIRB 796 concentration of approximately 30 mg/mL was prepared and the percent of BIRB 796 remaining in the PEG 400 solvent evaluated over an approximately two week time frame for differing conditions. The PEG 400-BIRB 796 mixture was kept under several different conditions: (1) at room temperature (about 23° C.) in ambient air in the dark; (2) at room temperature (about 23° C.) in ambient air in the light; (3) at 40° C. in ambient air; (4) at 40° C. in ambient air, the mixture being imbued with 0.1% sodium metabisulfite, an antioxidant; (5) at 60° C. in ambient air; (6) at 60° C. in an oxygen atmosphere; and (7) at 60° C. in a nitrogen atmosphere.
Rate constants were calculated using linear regression analysis of the data.

[5] = BIRB 796 binding to cyclodextrin (binding isotherm from solubility data), HPBCD; type: physicochemical
Method: (§1) The binding affinity for the BIRB 796 interaction with the ligands was evaluated in the following manner:
(§2) where Lt (ligand) is the total HPBCD or SBECD concentration, St is the solubility of BIRB 796 in the presence of ligand, So is the solubility in the absence of ligand, K11 is the binding constant for the 1:1 complex and K12 is the binding constant for the 1:2 complex. Upon rearrangement, these two equations simplify to the following linear equation: [formula]
(§3) A plot of [L]t vs. (StSo)/[Lt] yields the binding affinity according to the above equation.
(§4) FIG. 3 illustrates the binding analysis for the interaction between BIRB 796 and HPBCD at different concentrations. FIG. 4 illustrates the binding analysis for the interaction between BIRB 796 and SBECD at different concentrations. The binding constants were obtained through the slope and intercept values.

[6] = BIRB 796 binding to cyclodextrin (binding isotherm from solubility data), SBECD; type: physicochemical
Method: as §1, §2, §3, §4

[7] = 40° C., 0.1% sodium metabisulfite

solubility ([2]; aqueous cyclodextrin solution, aqueous with cosolvent or surfactant or cyclodextrin, BCD 0.7 % w/v): 44 µg/mL (≈ 83.4 µM) | solubility ([2]; aqueous cyclodextrin solution, aqueous with cosolvent or surfactant or cyclodextrin, BCD 1.4 % w/v): 74 µg/mL (≈ 140 µM) | solubility ([2]; aqueous cyclodextrin solution, aqueous with cosolvent or surfactant or cyclodextrin, BCD 2 % w/v): 87 µg/mL (≈ 165 µM) | solubility ([2]; aqueous cyclodextrin solution, aqueous with cosolvent or surfactant or cyclodextrin, HPBCD 1 % w/v): 24 µg/mL (≈ 45.5 µM) | solubility ([2]; aqueous cyclodextrin solution, aqueous with cosolvent or surfactant or cyclodextrin, HPBCD 2.5 % w/v): 49 µg/mL (≈ 92.9 µM) | solubility ([2]; aqueous cyclodextrin solution, aqueous with cosolvent or surfactant or cyclodextrin, HPBCD 5 % w/v): 137 µg/mL (≈ 260 µM) | solubility ([2]; aqueous cyclodextrin solution, aqueous with cosolvent or surfactant or cyclodextrin, HPBCD 10 % w/v): 233 µg/mL (≈ 442 µM) | solubility ([2]; aqueous cyclodextrin solution, aqueous with cosolvent or surfactant or cyclodextrin, HPBCD 25 % w/v): 1540 µg/mL (≈ 2910 µM) | solubility ([2]; aqueous cyclodextrin solution, aqueous with cosolvent or surfactant or cyclodextrin, SBECD 1 % w/v): 21 µg/mL (≈ 39.8 µM) | solubility ([2]; aqueous cyclodextrin solution, aqueous with cosolvent or surfactant or cyclodextrin, SBECD 2.5 % w/v): 85 µg/mL (≈ 161 µM) | solubility ([2]; aqueous cyclodextrin solution, aqueous with cosolvent or surfactant or cyclodextrin, SBECD 5 % w/v): 156 µg/mL (≈ 296 µM) | solubility ([2]; aqueous cyclodextrin solution, aqueous with cosolvent or surfactant or cyclodextrin, SBECD 10 % w/v): 371 µg/mL (≈ 703 µM) | solubility ([2]; aqueous cyclodextrin solution, aqueous with cosolvent or surfactant or cyclodextrin, SBECD 25 % w/v): 2170 µg/mL (≈ 4120 µM) | solubility ([2]; aqueous solution without cyclodextrin, SBECD 0 % w/v): 0.5 µg/mL (≈ 0.948 µM) | solubility ([2]; aqueous solution without cyclodextrin, no cyclodextrin (0 % w/v)): 3.3 µg/mL (≈ 6.25 µM) | BIRB 796 solubilized by SBECD, more than by HPBCD ([2]; highest cyclodextrin concentration evaluated (25% w/v)): approximately 40% | kobs ([4]; 23° C., air (dark)): -0.00253 day⁻¹ | t90 ([4]; 23° C., air (dark)): 41.5 days | kobs ([4]; 23° C., air, light): -0.0078 day⁻¹ | t90 ([4]; 23° C., air, light): 13.5 days | kobs [4, 7]: -0.0161 day⁻¹ | t90 [4, 7]: 6.52 days | kobs ([4]; 40° C., air): -0.0192 day⁻¹ | t90 ([4]; 40° C., air): 5.47 days | kobs ([4]; 60° C., N2): -0.0552 day⁻¹ | t90 ([4]; 60° C., N2): 1.90 days | kobs ([4]; 60° C., O2): -0.0772 day⁻¹ | t90 ([4]; 60° C., O2): 1.36 days | kobs ([4]; 60° C., air): -0.0587 day⁻¹ | t90 ([4]; 60° C., air): 1.79 days | degradation rate under constant light relative to dark ([4]; PEG 400, room temperature (about 23° C.), ambient air): approximately three-times as fast | decomposition in PEG 400 ([4]; over two weeks, 23° C.): significant decomposition was observed | half-life at 30 mg/mL ([4]; 23° C., air (dark)): 274 days | half-life at 30 mg/mL ([4]; 23° C., air, light): 88.8 days | half-life at 30 mg/mL [4, 7]: 43 days | half-life at 30 mg/mL ([4]; 40° C., air): 36.1 days | half-life at 30 mg/mL ([4]; 60° C., N2): 12.6 days | half-life at 30 mg/mL ([4]; 60° C., O2): 8.98 days | half-life at 30 mg/mL ([4]; 60° C., air): 11.8 days | Binding Constants K1:1 ([5]; 1:1 complex with HPBCD): 675 M⁻¹ | Binding Constants K1.2 ([5]; 1:2 complex with HPBCD): 17.5 M⁻¹ | Binding Constants K1:1 ([6]; 1:1 complex with SBECD): 8337 M⁻¹ | Binding Constants K1.2 ([6]; 1:2 complex with SBECD): 29.1 M⁻¹
SMILES: Cc1ccc(-n2nc(C(C)(C)C)cc2NC(=O)Nc2ccc(OCCN3CCOCC3)c3ccccc23)cc1 [BIRB 796, 1-(5-tert-butyl-2-p-tolyl-2H-pyrazol-3-yl)-3-[4-(2-morpholin-4-yl-ethoxy)-naphthalen-1-yl]-urea]
solubility and/or stability [1]: can not achieve a desirable solubility and/or stability | inhibitory activity with respect to proinflammatory cytokines [3]: unexpectedly significant inhibitory activity | binding affinity of SBECD for BIRB 796 compared with HPBCD ([6]; SBECD versus HPBCD, Table 2): approximately an order of magnitude higher binding affinity
